Data as given in PubChem BioAssay (NCI).
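Cells were grown in 96-well plates and exposed to each compound for 48 hours at five concentrations; endpoints were interpolated linearly between bracketing concentrations, or set to the highest concentration if not reached. At the GI50, growth is halved. Definition used: TGI = concentration required for complete inhibition of growth.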

Columns and labels:
Assay in all cases: growth of human tumour cells (NCI), 48 h
[1] = system: COLO 205 colon
[2] = system: HCC-2998 colon
[3] = system: HL-60(TB) leukemia
[4] = system: HOP-62 NSCLC
[5] = system: LOX IMVI melanoma
[6] = system: NCI-H522 lung
[7] = system: NCI/ADR-RES ovarian
[8] = system: T-47D breast
[9] = system: RPMI-8226 leukemia
[10] = system: SF-539 CNS

Compound | GI50 [1] | TGI [1] | GI50 [2] | TGI [2] | GI50 [3] | TGI [3] | GI50 [4] | TGI [4] | GI50 [5] | TGI [5] | GI50 [6] | TGI [6] | GI50 [7] | TGI [7] | GI50 [8] | TGI [8] | TGI [9] | TGI [10] | GI50 [9] | GI50 [10]
Cc1c2c(nn1-c1ccc(S(=O)(=O)/N=C3\SCCC(=O)N3c3ccccc3)cc1)-c1ccccc1CC2 | > 100 µM | > 100 µM | > 100 µM | > 100 µM | > 100 µM | > 100 µM | 46.4 µM | > 100 µM | > 100 µM | > 100 µM | 91.4 µM | > 100 µM | > 100 µM | > 100 µM | > 100 µM | > 100 µM |  |  |  | 
CCc1cc(Cc2cc(CC)c(NC(=O)C(=O)Cc3ccccn3)c(CC)c2Cl)c(Cl)c(CC)c1NC(=O)C(=O)Cc1ccccn1 |  | > 100 µM |  | > 100 µM |  | > 100 µM |  | > 100 µM |  | > 100 µM |  |  |  |  |  |  | > 100 µM | > 100 µM |  | 
CC(=O)/C(=C\c1cccc([N+](=O)[O-])c1)C(=O)Nc1ccccc1C |  |  |  | > 100 µM |  | 57.9 µM |  | > 100 µM |  | > 100 µM |  | > 100 µM |  |  |  |  | > 100 µM | > 100 µM |  | 
COc1cc2c3c(n(C)c(=O)c2cc1OC)-c1cc2c(cc1/C3=C\CCN)OCO2 | 0.975 µM | > 100 µM |  |  | 0.236 µM | 1.52 µM | 0.067 µM | 5.8 µM | < 0.01 µM | 0.194 µM | 0.851 µM | > 100 µM | 0.272 µM | 2.56 µM | 1.08 µM | > 100 µM | 0.975 µM | 3.74 µM | 0.061 µM | 0.215 µM
O=C1c2cc3c(cc2-c2c1c1ccc(F)cc1c(=O)n2CCCNCCO)OCO3 | 0.0423 µM | 0.81 µM | 0.0537 µM | 0.272 µM | 0.0291 µM | 0.198 µM | 0.0366 µM | 0.496 µM | 0.0139 µM | 0.0582 µM | 0.014 µM | 0.106 µM | 0.0374 µM | 1.08 µM |  |  | 0.571 µM | 0.324 µM | 0.0577 µM | 0.0407 µM
Cc1ccc(S(=O)(=O)Nc2ccccc2C(=O)c2ccc(C)c(C)c2)cc1 |  | > 100 µM |  |  |  |  |  | > 100 µM |  | > 100 µM |  | > 100 µM |  | > 100 µM |  | > 100 µM | > 100 µM | > 100 µM |  | 
Cc1cc(-c2ccc3nc(C4CCOCC4)n(CCOC(F)(F)F)c3c2)cn(C)c1=O |  | 2.97 µM |  |  | 0.0247 µM | 0.197 µM |  |  |  | 1.06 µM | 0.244 µM | 9.31 µM | 0.918 µM |  |  |  | > 31.6 µM |  | 0.13 µM | 
COc1cc(/C=C2\CN(S(=O)(=O)c3ccccc3)C/C(=C\c3cc(CN4CCCC4)c(O)c(OC)c3)C2=O)cc(CN2CCCC2)c1O |  |  |  |  | 0.513 µM | 2.73 µM |  |  | 0.332 µM | 1.14 µM | 0.318 µM | 2.11 µM | > 100 µM | > 100 µM | 3.76 µM | > 100 µM | 5.03 µM | 3.31 µM | 1.55 µM | 1.64 µM
CCOC(=O)C(=C=C=C(c1ccccc1)c1ccccc1)C(=O)OCC |  | 32.5 µM |  | 61.4 µM |  | 38.5 µM |  | 45.2 µM |  | 36.6 µM |  |  |  |  |  |  | 44.9 µM | 33.8 µM |  | 
O=S1(=O)OCCOS(=O)(=O)C1Br |  | > 100 µM |  | > 100 µM |  | > 100 µM |  | > 100 µM |  |  |  | > 100 µM |  |  |  |  | > 100 µM | > 100 µM |  | 
C/C(=N\NC(=S)NC(CCC(=O)O)C(=O)O)c1ccccn1 (centres undefined) |  | > 100 µM |  | > 100 µM |  | > 100 µM |  | > 100 µM |  | > 100 µM |  | > 100 µM |  |  |  |  | > 100 µM | > 100 µM |  | 
CC(C)=Cc1cc(C(=O)Nc2ccc(Cl)c(Cl)c2)nc(N)n1 |  |  |  | > 100 µM |  | > 100 µM |  | > 100 µM |  | > 100 µM |  |  |  |  |  |  | > 100 µM | > 100 µM |  | 
CCOC(=O)NC(=O)c1cn(CCCO)c(=O)[nH]c1=O |  | > 100 µM |  | > 100 µM |  |  |  | > 100 µM |  | > 100 µM |  |  |  |  |  |  | > 100 µM | > 100 µM |  | 
COc1ccc([C@H]2[C@@H](F)C(=O)N2c2cc(OC)c(OC)c(OC)c2)cc1F | 0.156 µM | 0.503 µM | 0.406 µM | > 100 µM | 0.0805 µM | 0.399 µM | 0.511 µM | > 100 µM | 0.0904 µM | > 100 µM | 0.0383 µM | > 100 µM | 0.0424 µM | > 100 µM |  |  | 37.3 µM | 0.217 µM | 0.055 µM | 0.028 µM
Brc1ccccc1C1SCc2nc3ccccc3n21 (centres undefined) |  | 32.1 µM |  |  |  | 34.1 µM |  | 39.2 µM |  | 26 µM |  | 33.9 µM |  |  |  |  | > 100 µM | 33 µM |  | 
O=c1cc(-c2ccccc2)oc2cc(OCCCOc3ccc4c(=O)cc(-c5ccccc5)oc4c3)ccc12 |  | > 100 µM |  | > 100 µM |  | > 100 µM |  | > 100 µM |  | > 100 µM |  | > 100 µM |  |  |  |  | > 100 µM | > 100 µM |  | 
CC(=O)OC1COC(n2ccc3cc(Br)c([N+](=O)[O-])cc32)C(OC(C)=O)C1OC(C)=O (centres undefined) |  | 50 µM |  | 59.6 µM |  |  |  | 92.2 µM |  | 40.7 µM |  |  |  |  |  |  | > 100 µM | 44.4 µM |  | 
Cn1c2ccccc2c2cc(-c3ccccc3)c3c(c21)C(=O)c1ccccc1C3=O |  | 94.3 µM |  | > 100 µM |  | 35.9 µM |  | > 100 µM |  |  |  | 48.4 µM |  |  |  |  | 25.3 µM | 49.2 µM |  | 
CN(C)c1ccc(/C=C(\NC(=O)c2ccccc2)c2nc3ncncc3[nH]2)cc1 |  | > 100 µM |  | > 100 µM |  | > 100 µM |  |  |  |  |  | > 100 µM |  |  |  |  |  | > 100 µM |  | 
OCCCCCNCc1cc2cc3c(cc2c2cc(OCc4ccccc4)ccc12)OCO3 |  |  |  |  | 1.52 µM | 3.65 µM | 1.72 µM | 3.23 µM |  |  |  |  |  |  |  |  |  | 3 µM |  | 1.64 µM
Clc1ccc(C(c2ccc(Cl)cc2)c2ccccn2)cc1 |  |  |  | 30.9 µM |  | 55.8 µM |  |  |  | 30.4 µM |  | 48.6 µM |  |  |  |  | 84.5 µM | 33.7 µM |  | 
